Values joined by “and” are separate entries in the source; they are usually repeats but may differ in a detail not shown here. Equal values may be shown once. Inconclusive results and toxic doses are left out.
Tested on: BDF1 mice, P388 leukemia ip, median survival T/C
Experiment: NCI In Vivo Anticancer Drug Screen. Data for tumor model P388 Leukemia (intraperitoneal) in B6D2F1 (BDF1) mice
Conditions: endpoint: median survival time, higher = longer survival
Summary of the method: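 Read-out is survival of treated animals expressed relative to the vehicle group, as a T/C ratio.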

[1] = dose: 50.0 mg/kg/injection, schedule: Q01DX009 (ip), vehicle: Klucel (hydroxypropylcellulose) (HPC)
[2] = dose: 100.0 mg/kg/injection, schedule: Q01DX009 (ip), vehicle: Klucel (hydroxypropylcellulose) (HPC)
[3] = dose: 100.0 mg/kg/injection, schedule: Q04DX003 (ip), vehicle: Klucel (hydroxypropylcellulose) (HPC)
[4] = dose: 200.0 mg/kg/injection, schedule: Q01DX009 (ip), vehicle: Klucel (hydroxypropylcellulose) (HPC)
[5] = dose: 100.0 mg/kg/injection, schedule: Q01DX009 (ip), vehicle: saline with Tween-80
[6] = dose: 200.0 mg/kg/injection, schedule: Q01DX009 (ip), vehicle: saline with Tween-80
[7] = dose: 400.0 mg/kg/injection, schedule: Q01DX009 (ip), vehicle: saline with Tween-80
[8] = dose: 12.5 mg/kg/injection, schedule: Q01DX009 (ip), vehicle: saline with Tween-80
[9] = dose: 25.0 mg/kg/injection, schedule: Q01DX009 (ip), vehicle: saline with Tween-80
[10] = dose: 50.0 mg/kg/injection, schedule: Q01DX009 (ip), vehicle: saline with Tween-80
[11] = dose: 100.0 mg/kg/injection, schedule: Q04DX003 (ip), vehicle: saline with Tween-80
[12] = dose: 400.0 mg/kg/injection, schedule: Q04DX003 (ip), vehicle: saline with Tween-80

For `ClC(Cl)C(Cl)(Cl)C(Cl)(Cl)Cl`, the T/C [1] was 91 % of control, the T/C (dose: 50.0 mg/kg/injection, schedule: Q04DX003 (ip), vehicle: Klucel (hydroxypropylcellulose) (HPC)) was 104 % of control and the T/C [2] was 95 % of control. For the same compound, the T/C [3] was 109 % of control, the T/C [4] was 100 % of control and the T/C (dose: 200.0 mg/kg/injection, schedule: Q04DX003 (ip), vehicle: Klucel (hydroxypropylcellulose) (HPC)) was 109 % of control.
With `O=C1CCCCc2ccc(O)cc21` the T/C [5] was 99 % of control, the T/C [6] was 89 % of control and the T/C [7] was 93 % of control.
With `CC(O)c1nc(N)nc(N)c1-c1ccc(Cl)cc1` (centres undefined) the T/C (dose: 100.0 mg/kg/injection, schedule: Q01DX001 (ip), vehicle: saline with Tween-80) was 106 % of control and the T/C (dose: 200.0 mg/kg/injection, schedule: Q01DX001 (ip), vehicle: saline with Tween-80) was 100 % of control.
`O=C(Nc1cccc(C(F)(F)F)c1)Nc1c(Oc2ccc(Cl)c(Cl)c2)ccc(Cl)c1S(=O)(=O)O` was tested, and the T/C (dose: 50.0 mg/kg/injection, schedule: Q04DX003 (ip), vehicle: saline) was 90 % of control, the T/C (dose: 100.0 mg/kg/injection, schedule: Q04DX003 (ip), vehicle: saline) was 100 % of control and the T/C (dose: 200.0 mg/kg/injection, schedule: Q04DX003 (ip), vehicle: saline) was 113 % of control.
`CCCCCCCCCCCCN1CCCC(C)C1` (centres undefined) was tested, and the T/C [8] was 114 % of control, the T/C [9] was 109 % of control and the T/C [10] was 98 % of control and 120 % of control.
For `CCOc1nc(SCC)ncc1C`, the T/C (dose: 50.0 mg/kg/injection, schedule: Q01DX009 (ip), vehicle: water) was 109 % of control, the T/C (dose: 100.0 mg/kg/injection, schedule: Q01DX009 (ip), vehicle: water) was 101 % of control and the T/C (dose: 100.0 mg/kg/injection, schedule: Q04DX003 (ip), vehicle: water) was 99 % of control. For the same compound, the T/C (dose: 200.0 mg/kg/injection, schedule: Q01DX009 (ip), vehicle: water) was 108 % of control, the T/C (dose: 200.0 mg/kg/injection, schedule: Q04DX003 (ip), vehicle: water) was 103 % of control and the T/C (dose: 400.0 mg/kg/injection, schedule: Q04DX003 (ip), vehicle: water) was 107 % of control.
In the case of `O=C1OP2(c3ccccc3)(OC(=O)c3ccccc32)c2ccccc21`, the T/C [10] is reported as 91 % of control and the T/C [5] is reported as 96 % of control.
With `CC([OH2+])CNCCN.CC([OH2+])CNCCN.O=[N+]([O-])[O-].[Cu+2]` (centres undefined) the T/C (dose: 12.5 mg/kg/injection, schedule: Q01DX009 (ip), vehicle: saline) was 110 % of control and the T/C (dose: 25.0 mg/kg/injection, schedule: Q01DX009 (ip), vehicle: saline) was 113 % of control.
With `CC(=O)OCC(=O)[C@@]1(O)[C@H](C)C[C@H]2[C@@H]3C=C(C)C4=Cc5c(cnn5-c5ccc(F)cc5)C[C@]4(C)[C@H]3[C@@H](O)C[C@@]21C` the T/C (dose: 0.19 mg/kg/injection, schedule: Q01DX009 (sc), vehicle: steriod suspending solution) was 120 % of control, the T/C (dose: 0.39 mg/kg/injection, schedule: Q01DX009 (sc), vehicle: steriod suspending solution) was 110 % of control and the T/C (dose: 0.58 mg/kg/injection, schedule: Q04DX003 (sc), vehicle: steriod suspending solution) was 118 % of control. For the same compound, the T/C (dose: 0.78 mg/kg/injection, schedule: Q01DX009 (sc), vehicle: steriod suspending solution) was 90 % of control, the T/C (dose: 1.17 mg/kg/injection, schedule: Q04DX003 (sc), vehicle: steriod suspending solution) was 118 % of control and the T/C (dose: 2.34 mg/kg/injection, schedule: Q04DX003 (sc), vehicle: steriod suspending solution) was 118 % of control. The T/C (dose: 3.4 mg/kg/injection, schedule: Q04DX003 (sc), vehicle: steriod suspending solution) was 100 % of control, the T/C (dose: 5.3 mg/kg/injection, schedule: Q04DX003 (sc), vehicle: steriod suspending solution) was 90 % of control and the T/C (dose: 6.0 mg/kg/injection, schedule: Q04DX003 (ip), vehicle: Klucel (hydroxypropylcellulose) (HPC)) was 105 % of control. The T/C (dose: 12.0 mg/kg/injection, schedule: Q04DX003 (ip), vehicle: Klucel (hydroxypropylcellulose) (HPC)) was 105 % of control, the T/C (dose: 25.0 mg/kg/injection, schedule: Q04DX003 (ip), vehicle: Klucel (hydroxypropylcellulose) (HPC)) was 90 % of control and the T/C [3] was 90 % of control.
With `ClC1(c2ccccc2)c2ccc(Br)cc2-c2cc(Br)ccc21` the T/C (dose: 66.0 mg/kg/injection, schedule: Q01DX009 (ip), vehicle: saline with Tween-80) was 100 % of control, the T/C [5] was 121 % of control and the T/C [4] was 88 % of control.
`N#CSCc1nc2ccc(Cl)cc2c(-c2ccccc2)[n+]1[O-]` was tested, and the T/C [10] was 100 % of control, the T/C [5] was 114 % of control and the T/C [6] was 114 % of control.
In the case of `CC(=O)O.[Cd]`, the T/C (dose: 5.0 mg/kg/injection, schedule: Q04DX003 (ip), vehicle: saline) is reported as 95 % of control.
In the case of `Cn1c(O)c(N=NC(N)=S)c2ccccc21`, the T/C (dose: 10.0 mg/kg/injection, schedule: Q01DX009 (ip), vehicle: saline with Tween-80) is reported as 102 % of control, the T/C (dose: 20.0 mg/kg/injection, schedule: Q01DX009 (ip), vehicle: saline with Tween-80) is reported as 98 % of control and the T/C (dose: 40.0 mg/kg/injection, schedule: Q01DX009 (ip), vehicle: saline with Tween-80) is reported as 115 % of control. For the same compound, the T/C [10] was 90 % of control, the T/C (dose: 80.0 mg/kg/injection, schedule: Q01DX009 (ip), vehicle: saline with Tween-80) was 120 % of control and the T/C [5] was 90 % of control. The T/C (dose: 160.0 mg/kg/injection, schedule: Q01DX009 (ip), vehicle: saline with Tween-80) was 113 % of control and the T/C [6] was 90 % of control.
For `CCCCCCC(=O)/C=C/c1ccc(OC)cc1`, the T/C [10] was 94 % of control, the T/C [5] was 103 % of control and the T/C [6] was 90 % of control.
For `CC1SC(c2ccccc2)N(c2nccs2)C1=O` (centres undefined), the T/C [10] was 103 % of control, the T/C [5] was 89 % of control and the T/C [6] was 99 % of control.
For `CC(=O)N1C2=CCCC3CCCCC23c2ccccc21` (centres undefined), the T/C [10] was 88 % of control and 109 % of control, the T/C [5] was 102 % of control and 104 % of control and the T/C [6] was 93 % of control. The T/C [7] was 112 % of control.
`O/N=c1\cc(-c2ccccc2)oc2ccccc12` was tested, and the T/C (dose: 3.13 mg/kg/injection, schedule: Q01DX009 (ip), vehicle: saline with Tween-80) was 95 % of control, the T/C (dose: 6.25 mg/kg/injection, schedule: Q01DX009 (ip), vehicle: saline with Tween-80) was 95 % of control and the T/C [8] was 112 % of control. For the same compound, the T/C [9] was 123 % of control.
With `CC(=O)Nc1c2sscc-2n(C)c1=O` the T/C (dose: 0.39 mg/kg/injection, schedule: Q01DX009 (ip), vehicle: saline with Tween-80) was 97 % of control and the T/C (dose: 0.78 mg/kg/injection, schedule: Q01DX009 (ip), vehicle: saline with Tween-80) was 104 % of control.
For `Clc1nn2cnnc2c2ccccc12`, the T/C (dose: 5.0 mg/kg/injection, schedule: Q01DX009 (ip), vehicle: saline) was 101 % of control and the T/C (dose: 10.0 mg/kg/injection, schedule: Q01DX009 (ip), vehicle: saline) was 101 % of control.
`CCOC(=O)C(N)Cc1ccc(N(CCCl)CCCl)cc1` (centres undefined) was tested, and the T/C (dose: 4.0 mg/kg/injection, schedule: Q04DX003 (ip), vehicle: saline with Tween-80) was 240 % of control and 245 % of control, the T/C (dose: 6.0 mg/kg/injection, schedule: Q04DX003 (ip), vehicle: saline with Tween-80) was 272 % of control and the T/C (dose: 9.0 mg/kg/injection, schedule: Q04DX003 (ip), vehicle: saline with Tween-80) was 272 % of control and 95 % of control.
In the case of `C=CCN(CC=C)CCNc1nc(C(Cl)(Cl)Cl)nc2ccc(Cl)cc12`, the T/C [11] is reported as 100 % of control, the T/C (dose: 200.0 mg/kg/injection, schedule: Q04DX003 (ip), vehicle: saline with Tween-80) is reported as 112 % of control and the T/C [12] is reported as 116 % of control.
`COc1cc2c(c(OC)c1OC)CC/C(=C\O)C2=O` was tested, and the T/C [1] was 112 % of control, the T/C [2] was 114 % of control and the T/C [4] was 106 % of control.
In the case of `O=C1c2ccccc2C(=O)N1CC#CCN1C(=O)c2ccccc2C1=O`, the T/C (dose: 75.0 mg/kg/injection, schedule: Q01DX009 (ip), vehicle: saline with Tween-80) is reported as 115 % of control, the T/C (dose: 150.0 mg/kg/injection, schedule: Q01DX009 (ip), vehicle: saline with Tween-80) is reported as 90 % of control and the T/C (dose: 300.0 mg/kg/injection, schedule: Q01DX009 (ip), vehicle: saline with Tween-80) is reported as 97 % of control.
With `CC1CC/C(=N\N(C)C)c2ccccc21` (centres undefined) the T/C (dose: 67.0 mg/kg/injection, schedule: Q04DX003 (ip), vehicle: saline with Tween-80) was 118 % of control, the T/C [11] was 122 % of control and the T/C [12] was 120 % of control.
For `CC(=O)Oc1ccc2c(c1)C(=O)C(Br)C1C2CCC2(C)C(OC(C)=O)CCC12` (centres undefined), the T/C (dose: 50.0 mg/kg/injection, schedule: Q01DX010 (sc), vehicle: steriod suspending solution) was 95 % of control and the T/C (dose: 400.0 mg/kg/injection, schedule: Q01DX010 (sc), vehicle: steriod suspending solution) was 90 % of control.

From PubChem BioAssay AID328 (DTP/NCI, 2004)
